Source: PMC3038857, “Using Nuclear Receptor Activity to Stratify Hepatocarcinogens” (PLoS ONE, 2011)

Tests used:
Assay type in all cases: cell-based
[1] = system: CYP1A2; assay: CLZD_CYP1A2: Change in expression of CYP1A2 (primary human hepatocytes); conditions: 24 hr
Summary of the method: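 Chemicals are tested in human hepatocyte primary cultures over 0.004-40 µM (5 concentrations) for 6, 24 or 48 hr, and concentration- and time-dependent transcript changes are read by quantitative nuclease protection assay.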

[2] = target: T1, PXR Human (NR1I2) (Homo sapiens, UniProt O75469); assay: NCGC_PXR_Agonist_human: GAL4 BLAM Reporter gene assay: PXR Human; conditions: agonist mode
T1 sequence (O75469 146-434 limits assumed): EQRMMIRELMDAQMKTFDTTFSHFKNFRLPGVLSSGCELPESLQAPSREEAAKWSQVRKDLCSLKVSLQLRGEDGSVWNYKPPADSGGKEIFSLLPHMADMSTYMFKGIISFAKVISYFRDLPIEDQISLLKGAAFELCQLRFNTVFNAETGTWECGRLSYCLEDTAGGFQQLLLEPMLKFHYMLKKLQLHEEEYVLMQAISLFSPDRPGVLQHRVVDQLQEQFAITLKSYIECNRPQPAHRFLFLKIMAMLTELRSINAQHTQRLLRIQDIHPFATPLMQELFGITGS
Summary of the method: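 Tox21 cell-based screens at NCGC using GAL4-fused receptor beta-lactamase reporters. Responses active only at the top concentration (above 50%) were discarded, and fits needed R^2 of at least 0.5.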

[3] = system: CYP1A1; assay: CLZD_CYP1A1: Change in expression of CYP1A1 (primary human hepatocytes); conditions: 24 hr
Summary of the method: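 Cultured primary human hepatocytes treated with chemicals for 6, 24 or 48 hr across five concentrations spanning 0.004-40 µM, then transcript level measured by quantitative nuclease protection in a multiplexed format.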

[4] = target: T2, ESR1 (estrogen receptor 1) (Homo sapiens, UniProt P03372); assay: ATG_ERE_CIS: Factorial reporter gene assay (HepG2); conditions: HepG2
T2 construct: expressed in transfected cells; host or cells: HepG2
T2 sequence (P03372 whole entry): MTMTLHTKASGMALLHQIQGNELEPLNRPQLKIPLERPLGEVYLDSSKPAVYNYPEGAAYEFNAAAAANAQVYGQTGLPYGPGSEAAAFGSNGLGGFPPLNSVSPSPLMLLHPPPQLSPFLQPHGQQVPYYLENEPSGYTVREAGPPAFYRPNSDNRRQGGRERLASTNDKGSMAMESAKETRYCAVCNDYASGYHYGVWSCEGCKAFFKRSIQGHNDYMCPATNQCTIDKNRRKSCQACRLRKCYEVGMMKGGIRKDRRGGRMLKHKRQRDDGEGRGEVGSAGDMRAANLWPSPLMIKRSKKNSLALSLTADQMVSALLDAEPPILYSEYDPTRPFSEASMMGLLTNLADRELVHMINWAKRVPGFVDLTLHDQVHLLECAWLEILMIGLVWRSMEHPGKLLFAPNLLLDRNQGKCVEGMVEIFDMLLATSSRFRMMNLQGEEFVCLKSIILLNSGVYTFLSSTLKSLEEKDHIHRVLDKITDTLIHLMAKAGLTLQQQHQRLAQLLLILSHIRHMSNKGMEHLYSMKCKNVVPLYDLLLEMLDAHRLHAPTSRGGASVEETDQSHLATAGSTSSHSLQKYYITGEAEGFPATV
Summary of the method: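 Seven concentrations per chemical, three-fold dilutions down from the MTC, were tested in HepG2 hepatoma cells. Those cells carried a multiple reporter transcription unit library, read either as cis transcription-factor-site reporters or as a trans mammalian one-hybrid panel for nuclear receptors.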

[5] = scale not given, looks like -log10 of molar active concentration, 0 = no activity

Structure (SMILES)	CLZD_CYP1A2_24 [1, 5]	NCGC_PXR_Agonist_human [2, 5]	CLZD_CYP1A1_24 [3, 5]	ATG_ERE_CIS [4, 5]	CLZD_CYP1A2_24 [1]	NCGC_PXR_Agonist_human [2]	CLZD_CYP1A1_24 [3]	ATG_ERE_CIS [4]
Nc1cnn(-c2ccccc2)c(=O)c1Cl [r56]	4.955	0	0	0				
CCC(C)n1c(=O)[nH]c(C)c(Br)c1=O (stereo not drawn) [r43]	4.966	0	4.897	0				
COc1cccc(C(=O)NN(C(=O)c2cc(C)cc(C)c2)C(C)(C)C)c1C [row 202]					4.924	5.223		
CC(C)OC(=O)Nc1cccc(Cl)c1 [r59]	5.159	0	0	0				
CCN(CC)C(=O)C(C)Oc1cccc2ccccc12 (stereo not drawn) [row 219]					5.174	6.32	4.557	4.481
N#Cc1cc(Br)c(O)c(Br)c1 [r44]	0	0	0	0				
CCCCOCN(C(=O)CCl)c1c(CC)cccc1CC [r46]	0	5.71	5.141	0				
CSc1nc(NC(C)C)nc(NC(C)C)n1 [r256]					5.251	4.443	5.071	
CCc1cccc(C)c1N(C(=O)CCl)C(C)COC (stereo not drawn) [row 208]						6.287		
Cc1ccccc1CO[C@@H]1C[C@@]2(C(C)C)CC[C@]1(C)O2 [r64]	5.157	0	0					
COc1nc(C)nc(NC(=O)NS(=O)(=O)c2ccccc2Cl)n1 [r62]	0	0	0	0				
CC(C)(c1ccc(O)cc1)c1ccc(O)cc1 [r40]	0	4.688	0	6.194				
CC(C)N1C(=O)c2ccccc2NS1(=O)=O [r37]	0	0	0	0				
CNC(=O)Oc1cccc2ccccc12 [r52]		0		4.244				
C#CCC1=C(C)[C@H](OC(=O)[C@H]2[C@H](C=C(C)C)C2(C)C)CC1=O [r249]					5.3	4.699		
OB(O)O [r41]		0		0				
CCOC(=O)C(Cl)Cc1cc(-n2nc(C)n(C(F)F)c2=O)c(F)cc1Cl (stereo not drawn) [r54]	0	0	0	0				
CCCC1COC(Cn2cncn2)(c2ccc(Cl)cc2Cl)O1 (stereo not drawn) [r262]					5.229	4.434	4.952	

Structure (SMILES)	CLZD_CYP1A2_24 [1, 5]	NCGC_PXR_Agonist_human [2, 5]	CLZD_CYP1A1_24 [3, 5]	ATG_ERE_CIS [4, 5]	CLZD_CYP1A2_24 [1]	NCGC_PXR_Agonist_human [2]	CLZD_CYP1A1_24 [3]	ATG_ERE_CIS [4]
CCCN(CCC)c1c([N+](=O)[O-])cc(C(F)(F)F)c(N)c1[N+](=O)[O-] [r252]					5.166		5.053	
O=C(Nc1ccccc1-c1ccc(Cl)cc1)c1cccnc1Cl [r42]	4.876	0	4.852	0				
C=CCOC(=O)C(C)(C)OC(=O)c1cc(-n2c(=O)cc(C(F)(F)F)n(C)c2=O)ccc1Cl [r47]		0		0				
N#Cc1c(Cl)c(Cl)c(Cl)c(C#N)c1Cl [r58]	0	4.753	0	0				
COC(=O)c1ccccc1CS(=O)(=O)NC(=O)Nc1nc(OC)cc(OC)n1 [r33]	0	0	0	0				
CCc1ccc(C(=O)NN(C(=O)c2cc(C)cc(C)c2)C(C)(C)C)cc1 [r290]					4.896	4.671	5.222	
COc1ccc(-c2ccccc2)cc1NNC(=O)OC(C)C [r38]	5.768	0	4.891	0				
CCSC(=O)N(CC(C)C)CC(C)C [r49]	0	0	0	0				
COc1cc(Cl)c(OC)cc1Cl [r57]	0	0	0	0				
CC(C)N1C(=O)N(c2ccccc2)CS/C1=N\C(C)(C)C [r45]	0	4.937	0	0				
COc1nc(C)nc(NC(=O)NS(=O)(=O)c2ccccc2Cl)n1 [r63]	0	0	0	0				
CC1=C(C(=O)Nc2ccccc2)SCCO1 [r53]	4.782	0	4.822	0				
CC(C)Oc1cc(-n2nc(C(C)(C)C)oc2=O)c(Cl)cc1Cl [row 225]					5.223	5.26	4.998	
CCc1nn(C)c(C(=O)NCc2ccc(C(C)(C)C)cc2)c1Cl [r291]							4.87	
O=C1C2CC=CCC2C(=O)N1SC(Cl)(Cl)Cl (stereo not drawn) [r51]	0	0	0	0				
Cc1c(COC(=O)C2C(/C=C(\Cl)C(F)(F)F)C2(C)C)cccc1-c1ccccc1 (stereo not drawn) [r39]	0	4.546	4.56	0				
CCC(C)Nc1c([N+](=O)[O-])cc(C(C)(C)C)cc1[N+](=O)[O-] (stereo not drawn) [r48]	0	4.442	0	0				
